In ChEMBL document CHEMBL1135881, “Ribose-modified nucleosides as ligands for adenosine receptors: synthesis, conformational analysis, and biological evaluation of 1'-C-methyl adenosine analogues” (J Med Chem, 2002):

What was measured:
Adenosine receptor A3 = molecular target: T1, Adenosine receptor A3 (Rattus norvegicus, UniProt P28647); assay: Affinity to Adenosine A3 receptor of rat testis membrane using [3H](R)-PIA with 150 nM DPCPX
T1 sequence (P28647 whole entry): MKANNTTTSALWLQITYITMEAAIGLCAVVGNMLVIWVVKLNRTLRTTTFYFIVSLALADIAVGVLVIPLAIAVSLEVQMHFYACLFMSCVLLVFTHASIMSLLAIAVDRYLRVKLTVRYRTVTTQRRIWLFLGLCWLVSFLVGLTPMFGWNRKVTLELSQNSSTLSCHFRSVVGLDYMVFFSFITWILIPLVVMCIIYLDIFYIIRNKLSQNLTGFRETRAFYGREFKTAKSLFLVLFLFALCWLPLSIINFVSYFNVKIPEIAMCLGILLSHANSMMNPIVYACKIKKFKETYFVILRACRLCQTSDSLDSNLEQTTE

Rattus norvegicus [1] = species on record: Rattus norvegicus; assay: Inhibition of Adenylyl cyclase activity in rat cortical membranes; type: functional
Rattus norvegicus [2] = species on record: Rattus norvegicus; assay: % maximal inhibition of Adenylyl cyclase activity in rat cortical membranes at 100 uM; type: functional
[3] = molecular target: Adenosine receptors; A1 & A3 (Rattus norvegicus) (UniProt P25099+P28647); assay: Selectivity for Adenosine A3 over Adenosine A1 receptor; type: protein assay
Adenosine receptor A1 = molecular target: T2, Adenosine receptor A1 (Rattus norvegicus, UniProt P25099)
T2 sequence (P25099 whole entry): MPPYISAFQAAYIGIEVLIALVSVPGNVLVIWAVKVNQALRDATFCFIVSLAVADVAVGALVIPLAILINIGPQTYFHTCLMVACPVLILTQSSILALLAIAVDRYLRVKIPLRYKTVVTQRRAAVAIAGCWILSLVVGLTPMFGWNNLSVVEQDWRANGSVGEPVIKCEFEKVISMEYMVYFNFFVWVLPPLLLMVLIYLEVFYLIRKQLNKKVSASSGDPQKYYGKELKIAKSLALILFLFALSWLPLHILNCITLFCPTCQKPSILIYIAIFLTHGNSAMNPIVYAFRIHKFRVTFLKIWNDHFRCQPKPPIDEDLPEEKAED
Description: Inhibition of [3H]CHA (N6-cyclohexyl adenosine) to rat brain membrane Adenosine A1 receptor

[4] = molecular target: T3, Adenosine receptor A3 (Rattus norvegicus) (UniProt P28647); assay: Displacement of [3H](R)-PIA from Adenosine A3 receptor of rat testis membrane with 150 nM DPCPX at 10e-5 M
T3 sequence (whole entry): T1 sequence (P28647 whole entry)

[5] = molecular target: T3, Adenosine receptor A3 (Rattus norvegicus); assay: Displacement of [3H](R)-PIA from Adenosine A3 receptor of rat testis membrane with 150 nM DPCPX
Rattus norvegicus [6] = species on record: Rattus norvegicus; assay: % maximal inhibition of Adenylyl cyclase activity in rat cortical membranes at 10 uM; type: functional
Adenosine receptor A2a = Adenosine receptor A2a (Rattus norvegicus, UniProt P30543); assay: Affinity to Adenosine A2A receptor of rat brain striatum using [3H]-CGS- 21680; type: tissue-based
Chain of Adenosine receptor A2a (P30543 whole entry): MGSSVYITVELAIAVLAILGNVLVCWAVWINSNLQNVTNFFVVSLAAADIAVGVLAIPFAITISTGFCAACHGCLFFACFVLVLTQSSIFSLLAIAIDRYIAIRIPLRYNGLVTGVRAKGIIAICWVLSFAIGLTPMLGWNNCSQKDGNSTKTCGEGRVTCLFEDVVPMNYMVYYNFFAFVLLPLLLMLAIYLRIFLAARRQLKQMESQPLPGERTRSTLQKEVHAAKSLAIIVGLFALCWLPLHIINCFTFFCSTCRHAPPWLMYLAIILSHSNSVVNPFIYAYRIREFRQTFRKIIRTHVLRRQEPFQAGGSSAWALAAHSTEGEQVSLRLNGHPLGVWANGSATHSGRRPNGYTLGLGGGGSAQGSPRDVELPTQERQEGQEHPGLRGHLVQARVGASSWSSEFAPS

Ki (Adenosine receptor A3) | IC50 (Rattus norvegicus [1]) | Max inhibition (Rattus norvegicus [2]) | Selectivity [3] | Ki (Adenosine receptor A1) | Structure (SMILES) | further results
 |  |  |  | 0.74 µM | C[C@@]1(O)[C@H](O)[C@@H](CO)O[C@H]1n1cnc2c(N)ncnc21 | Displacement [4]: 0%
0.67 µM | 0.065 µM | 23.7% |  |  | C[C@H](Cc1ccccc1)Nc1ncnc2c1ncn2[C@]1(C)O[C@H](CO)[C@@H](O)[C@H]1O | 
 |  |  | 230 | 0.0047 µM | C[C@H](Cc1ccccc1)Nc1ncnc2c1ncn2[C@@H]1O[C@H](CO)[C@@H](O)[C@@]1(C)O | Ki (Adenosine receptor A2a): 7.4 µM
 |  |  | 200 | 0.05 µM | C[C@@H](Cc1ccccc1)Nc1ncnc2c1ncn2C1O[C@H](CO)[C@@H](O)[C@@]1(C)O (some centres undefined) | 
6.16 µM | 0.14 µM | 29% |  | 0.27 µM | C[C@@H](Cc1ccccc1)Nc1ncnc2c1ncn2[C@]1(C)O[C@H](CO)[C@@H](O)[C@H]1O | 

The remaining lines, values behind:

Structure (SMILES) | Ki (Adenosine receptor A3) | IC50 (Rattus norvegicus [1]) | Max inhibition (Rattus norvegicus [2]) | Selectivity [3] | Ki (Adenosine receptor A1) | further results
C[C@@]1(n2cnc3c(NC4CCCC4)ncnc32)O[C@H](CO)[C@@H](O)[C@H]1O | 5.17 µM | 0.357 µM | 17.4% | 52 | 0.1 µM | 
C[C@@]1(O)[C@@H](CO)O[C@@H](n2cnc3c(N)ncnc32)[C@@H]1O |  |  |  | > 202 |  | 
C[C@@]1(n2cnc3c(N)ncnc32)O[C@H](CO)[C@@H](O)[C@H]1O |  | 3.44 µM | 22% | > 1.3 | 7.7 µM | Displacement [5]: 19%
C[C@@]1(O)[C@H](O)[C@@H](CO)O[C@H]1n1cnc2c(NC3CCCC3)ncnc21 |  |  |  | 22.1 | 0.0095 µM | 
OC[C@H]1O[C@@H](n2cnc3c(NC4CCCC4)ncnc32)[C@H](O)[C@@H]1O [N6-CYCLOPENTYLADENOSINE] |  |  |  |  |  | Max inhibition (Rattus norvegicus [6]): 15.5%; Ki (Adenosine receptor A2a): 0.38 µM
